“And” between values parts separate entries of the source, which are not always exact repeats. Equal values may be shown once. Where a SMILES comes first, the peptide text is derived from it.
How the values were obtained:
Assay type in all cases: biochemical
[1] = target: T1, purified human synovial sPLA2 (human Type IIA sPLA2) (Homo sapiens, UniProt P14555); experiment: sPLA2 inhibition, 3H-arachidonate-labelled E. coli membrane assay; details: fixed peptide concentration (5 μM); 3H-labelled E. coli membrane assay; read-out: % Inhibition (mean ± SD)
T1 construct: purchased Cayman Chemicals, USA
T1 sequence (P14555 21-144): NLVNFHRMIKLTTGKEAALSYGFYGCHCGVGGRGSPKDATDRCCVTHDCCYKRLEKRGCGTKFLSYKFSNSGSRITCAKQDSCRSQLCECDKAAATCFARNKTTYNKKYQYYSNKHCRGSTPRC
Experimental: In brief, [^3H] arachidonate-labeled E. coli membranes (0.005 mCi/mL; 5.8 μCi/μmol, NEN) were used as substrate, and 100 mM Tris-HCl—25 mM CaCl2, pH 7.5 solution as an assay buffer. The reaction mixture contained 20 μL of substrate, 0.85 pmole of purified human synovial sPLA2 (human Type IIA sPLA2, Cayman Chemicals, USA), and an increasing concentrations of the family of synthetic peptides derived from the sequence of PIP. The final volume of the reaction mixture was adjusted to 250 μL with an assay buffer. After incubation of the mixture (37° C., 1 h) and termination of the reaction with 750 μL of chilled PBS containing 1% BSA, microfuge tubes containing the samples were centrifuged (10,000 g at 4° C. for 15 min), and 500 μL aliquots of the supernatant taken to measure the amount of [^3H]-labeled arachidonate released from the E. coli membrane using liquid scintillation counting (Multipurpose Scintillation Counter LS 6500; Beckman, USA). As controls, sPLA2 was pre-incubated with the assay buffer alone. All samples, including controls, were performed in triplicate and plotted as the percentage inhibition relative to negative controls.
A sigmoid dose response curve was generated to allow calculation of the IC50 values. All samples were performed in triplicate. Results were analyzed by nonlinear regression with GraphPad Prism (version 2.01) and expressed as the percentage of inhibition relative to control values.

collagenase I (MMP-1) = experiment: Collagenase activity assay, collagen thin film (collagen type II substrate); details: for Collagenase (% Inhibition): collagen thin film, collagen type II, peptide concentration not given
Experimental: Collagenase activity was assayed by collagen thin film method using collagen type II as substrate. IC50 values were graphically determined from the inhibition curves, constructed on the basis of the in vitro results of collagenase assays. Results are the mean±SD of 3 separate experiments done in triplicates. (•), P-NT.II; (□), PIP [59-67] dimer; (Δ), PIP [59-67} monomer; (∇), LY 315920.
Collagenase activity assay: Using collagen thin film as the substrate, a quantitative method was established to measure the enzymatic activity of the MMPs (principally collagenase). Collagen type II (Sigma) solution (4 μL, 3 mg/mL in 0.012 N HCl) was added to each well of 96-well plates and precipitated by slowly increasing the pH with 4 μL of H2O and 8 μL of 0.012 N NaOH. The plate was dried at 23° C. for 24 hr, washed with H2O, and dried again at 23° C., resulting in a thin film containing 12 μg of collagen that was tightly bound to the bottom of the wells. Enzymatic reactions of the collagenase I (with and without peptide inhibitors) against the collagen films were carried out in quadruplicate at 24° C. for 16 h. The digested portion of the film was washed away, while the undigested portion was fixed for 3 h with 0.1% Coomassie brilliant blue R in 10% acetic acid and 45% methanol, and the wells washed and dried.

MMP-2 = target: T2, MMP-2 (Homo sapiens, UniProt P08253); experiment: Gelatin zymography of human synovial fluid pre-incubated with inhibitors; details: 5 or 10 μM, pre-incubated 37° C. 1 h
T2 construct: from tissue; host or cells: human synovial fluid
T2 sequence (P08253 110-660): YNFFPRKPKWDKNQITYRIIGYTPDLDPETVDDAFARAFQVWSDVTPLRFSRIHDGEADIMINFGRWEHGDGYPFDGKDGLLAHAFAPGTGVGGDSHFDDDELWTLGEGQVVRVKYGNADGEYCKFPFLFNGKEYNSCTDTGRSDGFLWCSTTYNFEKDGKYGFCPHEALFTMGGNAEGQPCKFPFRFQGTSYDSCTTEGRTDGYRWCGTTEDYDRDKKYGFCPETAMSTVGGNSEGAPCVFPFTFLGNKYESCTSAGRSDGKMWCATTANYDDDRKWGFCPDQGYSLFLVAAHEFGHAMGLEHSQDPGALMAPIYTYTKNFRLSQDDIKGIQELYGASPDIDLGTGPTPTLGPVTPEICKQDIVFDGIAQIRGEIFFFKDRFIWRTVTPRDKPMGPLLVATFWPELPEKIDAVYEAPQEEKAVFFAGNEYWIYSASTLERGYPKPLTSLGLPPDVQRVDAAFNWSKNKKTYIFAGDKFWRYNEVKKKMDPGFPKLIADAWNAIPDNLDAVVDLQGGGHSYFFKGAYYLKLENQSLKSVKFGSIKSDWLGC
Experimental: (A) Samples containing human synovial fluid (5 μL) and 5 or 10 μM of peptides were pre-incubated at 37° C. for 1 h in Tris-HCl buffer prior to electrophoresis on 10% SDS-PAGE gel containing gelatin (0.1%). […] (B) The mean density (OD/mm2)±SD (n=3), representing MMP-2 activity, obtained by scanning the zymograms using the GS-710 calibrated imaging densitometer (Bio Rad, USA).
Gelatin zymography: human synovial fluid, purified human recombinant MMP-2 and -9 or APMA-activated concentrated culture supernatant samples (10 μL) was mixed (1:1) with Laemmli sample buffer, loaded on 4% acrylamide stacking gel and electrophoresed (120 V) at 4° C. on a 10% acrylamide-resolving minigel containing 0.1% gelatin. After electrophoresis for 1 h, the gels were soaked in 2.5% Triton X-100 on a shaker for 1 h, changing the solution after 30 min, to eliminate SDS. After overnight incubation in zymogen activation buffer [50 mM Tris-HCl, pH 7.5, containing 10 mM CaCl2 and 5 mM ZnCl2] at 37° C., the gels were rinsed in distilled water, and stained for 3 hr with […], after which clear bands of digested gelatin were clearly visible. The gels were briefly rinsed in distilled water and scanned by the Bio-Rad GS-710 Calibrated Imaging Densitometer.

SMILES	inhibition at 5 µM [1] [%]	Collagenase (% Inhibition) (collagenase I (MMP-1))	MMP-2 gelatinase activity (zymogram densitometry) vs control (MMP-2)	IC50 (collagenase I (MMP-1); collagen thin film method, FIG. 2, read-out: IC50 (mean±SD), collagenase I (MMP-1)) [µM]
CC[C@H](C)[C@H](NC(=O)[C@H](CC(=O)O)NC(=O)[C@@H](N)C(C)C)C(=O)N[C@@H](Cc1c[nH]cn1)C(=O)N[C@H](C(=O)N[C@@H](Cc1c[nH]c2ccccc12)C(=O)N[C@@H](CC(=O)O)C(=O)NCC(=O)N[C@H](C(=O)O)C(C)C)C(C)C [PIP [59-67] monomer] (H-VDIHVWDGV-OH; N-terminus and C-terminus assumed)	56.4 ± 3.21	34.2 ± 4.7%	did not show any significant difference from the control	
CC[C@H](C)[C@H](NC(=O)[C@H](Cc1ccc(O)cc1)NC(=O)[C@@H](NC(=O)CNC(=O)[C@H](CC(=O)O)NC(=O)[C@H](Cc1c[nH]c2ccccc12)NC(=O)[C@@H](NC(=O)[C@H](Cc1c[nH]cn1)NC(=O)[C@@H](NC(=O)[C@H](CC(=O)O)NC(=O)[C@@H](NC(=O)[C@H](CCCNC(=N)N)NC(=O)CNC(=O)[C@@H](N)CC(C)C)C(C)C)[C@@H](C)CC)C(C)C)C(C)C)C(=O)N[C@@H](CCCNC(=N)N)C(=O)NCC(=O)N[C@@H](CCCNC(=N)N)C(=O)O [P-NT.II] (H-LGRVDIHVWDGVYIRGR-OH; N-terminus and C-terminus assumed)		64.2 ± 5.6% and 64.2 ± 5.5%	did not show any significant difference from the control	8.43 ± 1.17
